In US7358056B1, “Methods for modulating signal transduction mediated by TGF-β and related proteins” (Signal Pharmaceuticals, priority 1999, dated 2008):
Where a SMILES comes first, the peptide text is derived from it. Where no end group is shown, it is not given here. The star is where a group is joined. Biotin = O=C1N[C@H]2[C@H](CS[C@H]2CCCCC(=O)*)N1; Ahx = NCCCCCC(=O)O

How the values were obtained:
[1] = test system: E1 and E2s (ubc5c and ubc7); test: Coupled ubiquitin assay, ubiquitination of active site cysteines of E1 and E2; assay type: biochemical; settings: 20 mM DTT
Method: Recombinant E1 (ubc5c) and E2 (ubc7) components were obtained from BostonBiochem (Cambridge, Mass.). Radiolabeled ubiquitin was generated by PKA-mediated incorporation of [^32P]-phosphate from […] to the PKA site of the GST-Ub fusion protein (pGEX KG expression vector). The ubiquitin assay buffer (UbB) was as follows: 50 mM Tris pH 7.6, 1 mM ATP, 0.2 mM EDTA, 5 mM MgCl2, 1 unit inorganic pyrophosphatase, 0.005% TRITON® X-100 detergent and 1 μM staurosporine. In a 0.030 mL reaction, the following components were present: 50-200 ng E1, 0.1-1 μg E2 and 5 μg GST-Ub. […] Reactions were analyzed by SDS-PAGE. The ubiquitination of active site cysteine residues of E1 and E2s (ubc Sc and ubc 7) was observed (FIGS. 9A-9C).

WWP1 WW domains = test: TRF binding assay of biotinylated PY motif peptides to GST-WW domain fusions; settings: for Interaction with WWP1 WW domains (TRF, peptide titration): GST-WW domains coated at 30 μg/mL overnight
Method: Each domain was individually expressed as a GST fusion protein. A TRF binding assay was used to evaluate interactions of PY motif peptides with these domains or GST alone. WW domains were bound to a 96-well polystyrene assay plate (Costar) overnight at 4° C. in a 200 mM carbonate buffer (Pierce, Rockford, Ill.) at different concentrations (0, 1, 3, 10 μg/mL). Unbound WW domain was washed away with distilled, deionized water and the plates were blocked with 1% BSA/carbonate buffer for 2 hours at room temperature. The plates were then washed with Tris/TWEEN® buffer: 50 mM Tris pH 7.5, 100 mM NaCl, 1 mM EDTA, 1% BSA, 1 mM DTT, 0.1% TWEEN® 20 detergent, protease inhibitor cocktail (Boehringer-Mannheim).
PY motif peptides were synthesized with a C6-linker and biotin tag.
These biotinylated peptides were solvated in Tris/TWEEN® buffer and added to the assay plates (30 μM). The plates were incubated at 4° C. for varying amounts of capture time. The plates were then washed with PBS/0.1% TRITON® X-100 detergent and probed for 1 hour at room temperature with 1 μg/mL Europium-labeled streptavidin (DELFIA; Wallac Oy, Turku, Finland) in DELFIA Assay Buffer/0.1% Triton X100. The unbound Europium-labeled streptavidin was washed with PBS/0.1% TRITON® X-100 detergent. Europium was released for time-resolved fluorescence measurements with the DELFIA Enhancement Buffer. Measurements were made on either the DELFIA 1234 or Victor fluorometers.
Smad PY motif peptides from Smad 1, 2, 3, 5, 6 and 7 (Table 1) were then evaluated with the WW domains from WWP1 (FIGS. 6A-6D and 7A-7B). The GST-WW domain fusion proteins and GST alone were coated at 30 μg/mL overnight. After blocking the wells with BSA, the WW domain peptides were titrated with the Smad PY motif peptides.

HA-tagged Smad1 = test: BMP-induced Smad1 degradation in transfected COS cells (Western, anti-HA); assay type: cell-based; settings: 100 ng BMP 4 hours, 50-100 μM LLF
Method: HA-tagged Smad1 expression vector was transfected into COS cells. The transfected cells were then treated with 100 ng BMP for 4 hours in the absence or presence of 50-100 μM of the proteasome inhibitor Leu-Leu-Phe (LLF). The cells were lysed and equal amount of protein was loaded in each lane. Western analysis was performed using anti-HA antibody (BAbCo, Berkeley, Calif.).

Smad1 = test: In vivo ubiquitination of Smad1 in transfected COS cells (immunoprecipitation, Western); assay type: cell-based; settings: COS cells treated with LLF, with or without BMP
Method: To assess the in vivo ubiquitination of Smad1, a Smad1 expression vector was transfected into COS cells. The transfected cells were treated with BMP and the proteasome inhibitor LLF, as described above. The cells were then lysed and equal amounts of protein were used for immunoprecipitation using anti-HA antibody, to precipitate tagged-Smad1 protein. The immunoprecipitated Smad1 was run on SDS-PAGE, followed by a Western blot using anti-HA antibody or anti-ubiquitin antibody (BAbCo).

| Compound | Interaction with WWP1 WW domains (TRF, peptide titration) (WWP1 WW domains) | also measured |
| --- | --- | --- |
| O[C@@H](CS)[C@@H](O)CS [DTT] | – | Formation of thioester intermediates (ubiquitinated E1 and E2) [1]: prevented the formation of the thioester intermediates |
| AGLTPPPGYLSEDG (SEQ ID NO:25) (also: biotinylated) [Smad 3, biotinylated Smad3 PY motif peptide] | no measurable interaction | – |
| {Biotin-Ahx}-HPGTPPPPYTVGPG-NH2 (SEQ ID NO:28) [WBP1, reference compound] | – | Binding to WWP1 WW domains (TRF) (WWP1 WW domains; peptide 30 μM, WW domains coated at 0, 1, 3, 10 μg/mL, GST alone as control): bound specifically |
| GPESPPPPYSRLSP (SEQ ID NO:21) (also: biotinylated) [Smad 6, biotinylated Smad6 PY motif peptide] | measurable interactions | – |
| PADTPPPAYMPPDD (SEQ ID NO:23) (also: biotinylated) [Smad 5, biotinylated Smad5 PY motif peptide] | measurable interactions | – |
| IPETPPPGYISEDG (SEQ ID NO:24) (also: biotinylated) [Smad 2, biotinylated Smad2 PY motif peptide] | no measurable interaction | – |
| CC(C)C[C@H](NC(=O)[C@@H](N)CC(C)C)C(=O)N[C@@H](Cc1ccccc1)C(=O)O [LLF, Leu-Leu-Phe] (H-Leu-Leu-Phe-OH) | – | Effect on BMP-induced Smad1 degradation (HA-tagged Smad1): blocks BMP-induced Smad1 degradation; Accumulation of high molecular weight ubiquitinated Smad1 (Smad1): accumulated more high molecular weight, ubiquitinated-Smad1 protein |
| {Biotin-Ahx}-PADTPPPAYLPPED-NH2 (SEQ ID NO:22) [Smad 1] | no measurable interaction | – |
